# Laboratory results from paper PMC9027599, “Secondary Metabolites in Basil, Bio-Insecticide, Inhibition Effect, and In Silico Molecular Docking against Proteolytic Enzymes of the Red Palm Weevil (Rhynchophorus ferrugineus)” (Plants, 2022).
# Tested on: cysteine protease
# Experiment: Cysteine protease activity of midgut from larvae treated 24 h (in vivo)
# Parameters: species or system Rhynchophorus ferrugineus
# Details: midgut of fourth instar larvae treated for 24 h
# Description: The activity of cysteine proteinase was determined in the fourth midgut instar larval homogenate of R. ferrugineus using the substrate Z-Phe-Arg-MNA [1]. […] The reaction was centrifuged (at 5000 rpm, 6 min), then the absorbance was determined (at 520 nm). The activity of cysteine proteinase was measured using an ELISA quick plate reader at the OD520/60 min/mg of midgut protein. […]
# As a control, an assay combination devoid of inhibitors was utilized. The absorbance of the enzymes was determined using an ELISA plate quick reader at various wavelengths. The percentage activity of the control enzyme for each inhibitor was evaluated for each enzyme. Protease activity was assayed in vivo in the R. ferrugineus fourth midgut larval instars, which were treated with 1, 10, 50, 100, 500, 1000, and 5000 mg/L of extracts or compounds, measured as described above. […]
smiles,measurement,value
C[C@@H]1O[C@@H](OC[C@H]2O[C@@H](Oc3c(-c4ccc(O)c(O)c4)oc4cc(O)cc(O)c4c3=O)[C@H](O)[C@@H](O)[C@@H]2O)[C@H](O)[C@H](O)[C@H]1O [Quercetin-3-O-rutinoside],IC50 against cysteine protease (in vivo),746.6 µg/mL
